Active and inactive are the calls of the source. The calls are words filed in the database; no cut-off is given here.

Ki, inhibition and Activity data for 63 compounds are collected here from ChEMBL document CHEMBL2057062, “Synthesis and biological evaluation of 4-phenylquinazoline-2-carboxamides designed as a novel class of potent ligands of the translocator protein” (J Med Chem, 2012).

One test concerns the target Translocator protein (Rattus norvegicus, UniProt P16257). Kind of test: Displacement of [3H]PK11195 from TSPO in rat kidney mitochondrial membranes by competitive binding assay. Format: cell membranes, Membrane. (Displacement assays read how much labelled ligand stays bound in the presence of the test substance.)
The species entered for another test is Rattus norvegicus. Kind of test: Displacement of [3H]flumazenil from central benzodiazepine receptor in rat cerebral cortex membranes at 10 uM after 90 mins by competitive binding assay. Format: cell membranes. Conditions: Membrane.
Test [1] has as its target Translocator protein (Rattus norvegicus) (UniProt P16257). Kind of test: Displacement of [3H]PK11195 from TSPO in rat kidney mitochondrial membranes at 1 uM by competitive binding assay. In kind it is cell membranes. Conditions: Membrane.
The test system of a further test is C6. Kind of test: Increase in pregnenolone production in rat C6 glioma cells at 40 uM after 2 hrs by ELISA. In kind it is functional, cell-based.
Another test deals with U-87MG ATCC. In words: Antiproliferative activity against human U87MG cells assessed as cell viability at 100 uM after 24 hrs by MTS assay. Format: functional, cell-based.

Broadly, the Ki is a measure of affinity in units of concentration, obtained from inhibition or displacement. The inhibition is the relative decrease from the control value, in per cent. `CCCCCCN(CCCCCC)C(=O)c1nc(-c2ccccc2Cl)c2ccccc2n1`: the affinity on Translocator protein, expressed as Ki, was 65.1 nM. The inhibition in the test filed under Rattus norvegicus worked out at 0%.

The compound `CC(C)CN(C)C(=O)c1nc(-c2ccccc2Cl)c2ccccc2n1` registered a Ki at Translocator protein of 6.98 nM. In addition, the inhibition in the test filed under Rattus norvegicus stood at 0%.

In the case of `CC(C)N(C)C(=O)c1nc(-c2ccccc2Cl)c2cc(Cl)ccc2n1`, the inhibition (in test [1]; in the test filed under Rattus norvegicus) was 0% throughout.

For the compound `CCOC(=O)c1ncn2c1CN(C)C(=O)c1cc(F)ccc1-2`, the inhibition in the test filed under Rattus norvegicus came to 0%.

Regarding `CCC(C)NC(=O)c1nc(-c2ccccc2)c2ccccc2n1` (stereo unspecified), the inhibition (in test [1]; in the test filed under Rattus norvegicus) was 0% each time.

For `O=C(c1nc(-c2ccc(Cl)cc2)c2cc(Cl)ccc2n1)N1CCCCCC1`, the inhibition in test [1] was found to be 77%; in the test filed under Rattus norvegicus it was 0%.

The compound `CC(C)CN(C)C(=O)c1nc(-c2ccc(Cl)cc2)c2cc(Cl)ccc2n1` yielded a Ki at Translocator protein of 60.7 nM. The same compound gave an inhibition in the test listed under Rattus norvegicus of 0%.

`CCCCN(C)C(=O)c1nc(-c2ccccc2)c2ccccc2n1`: the Ki on Translocator protein is 46 nM. In the test with C6, the result was Active. The inhibition in the test listed under Rattus norvegicus came out at 0%.

`CCC(C)N(C)C(=O)c1nc(-c2ccccc2Cl)c2ccccc2n1` (stereo unspecified) displayed an inhibitory constant (Ki) on Translocator protein of 3.06 nM. In addition, the outcome in the test on C6 and in the test on U-87MG ATCC was Active. This compound also registered an inhibition in the test filed under Rattus norvegicus of 0%.

As to `CC(C)CN(C)C(=O)c1nc(-c2ccccc2)c2cc(Cl)ccc2n1`, the affinity on Translocator protein, expressed as Ki, was 842 nM. The compound further gave an inhibition in the test listed under Rattus norvegicus of 0%.

Consider `CCC(C)NC(=O)c1nc(-c2ccccc2Cl)c2ccccc2n1` (stereo unspecified), for which the inhibition was determined as 63% in test [1] and 0% in the test filed under Rattus norvegicus.

For the compound `CCC(C)N(C)C(=O)c1cc2ccccc2c(-c2ccccc2Cl)n1` (stereo unspecified), the result with C6 and with U-87MG ATCC was Active. Also, in the test filed under Rattus norvegicus, the inhibition was determined as 0%.

`O=C(c1nc(-c2ccccc2Cl)c2ccccc2n1)N1CCCCC1` gave a Ki at Translocator protein of 46 nM. Further, the inhibition in the test filed under Rattus norvegicus is 0%.

Consider `CCC(C)NC(=O)c1nc(-c2ccccc2)c2cc(Cl)ccc2n1` (stereo unspecified), for which the inhibition (in test [1]; in the test filed under Rattus norvegicus) was 0% throughout.

`CC[C@@H](C)N(C)C(=O)c1nc(-c2ccc(Cl)cc2)c2ccccc2n1` showed a Ki at Translocator protein of 1.57 nM. In the test listed under Rattus norvegicus, the inhibition stood at 0%.

For `O=C(c1nc(-c2ccc(Cl)cc2)c2cc(Cl)ccc2n1)N1CCCCC1`, the inhibition was 76% in test [1] and 0% in the test listed under Rattus norvegicus.

`CCCCN(CCCC)C(=O)c1nc(-c2ccccc2)c2ccccc2n1` gave a Ki at Translocator protein of 3.3 nM. Also, the result in the test with C6 was Active. The compound also came in with an inhibition in the test listed under Rattus norvegicus of 0%.

Consider `CCC(C)NC(=O)c1nc(-c2ccc(Cl)cc2)c2cc(Cl)ccc2n1` (stereo unspecified), for which the inhibition in test [1] came to 49%; in the test filed under Rattus norvegicus it was 0%.

For `CC(C)N(C)C(=O)c1nc(-c2ccccc2Cl)c2ccccc2n1`, affinity at Translocator protein was put at a Ki of 12.5 nM. This compound also had an inhibition in the test filed under Rattus norvegicus of 0%.

As to `CN1C(=O)CN=C(c2ccc(Cl)cc2)c2cc(Cl)ccc21`, the outcome with C6 was Active. This compound yielded an inhibition in the test listed under Rattus norvegicus of 0%.

Regarding `O=C(c1nc(-c2ccc(Cl)cc2)c2ccccc2n1)N1CCCC1`, the Ki on Translocator protein was found to be 644 nM. The compound also yielded an inhibition in the test filed under Rattus norvegicus of 0%.

Regarding `CCCCCCN(CCCCCC)C(=O)c1nc(-c2ccccc2Cl)c2cc(Cl)ccc2n1`, the affinity at Translocator protein, expressed as Ki, was 30.4 nM. The inhibition in the test listed under Rattus norvegicus was 0%.

On Translocator protein, `CC[C@H](C)N(C)C(=O)c1nc(-c2ccccc2)c2ccccc2n1` registered a Ki of 6.09 nM. Also, the inhibition in the test filed under Rattus norvegicus was 0%.

On to `O=C(c1nc(-c2ccc(Cl)cc2)c2ccccc2n1)N1CCCCCC1`, for which, on Translocator protein, the Ki amounted to 84.3 nM. Besides, the inhibition in the test filed under Rattus norvegicus came to 0%.

For the compound `CC(C)CN(C)C(=O)c1nc(-c2ccccc2Cl)c2cc(Cl)ccc2n1`, the inhibition was 77% in test [1] and 0% in the test listed under Rattus norvegicus.

As to `O=C(c1nc(-c2ccc(Cl)cc2)c2cc(Cl)ccc2n1)N1CCCC1`, the inhibition in test [1] amounted to 64%; in the test listed under Rattus norvegicus, 0%.

`CC(C)N(C)C(=O)c1nc(-c2ccccc2)c2ccccc2n1` showed a Ki on Translocator protein of 70.3 nM. The inhibition in the test listed under Rattus norvegicus is 0%.

In the test listed under Rattus norvegicus, `CCCN(CCC)C(=O)Cc1c(-c2ccc(Cl)cc2)nc2ccc(Cl)cn12` had an inhibition of 0%.

Take `CC[C@H](C)N(C)C(=O)c1nc(-c2ccc(Cl)cc2)c2ccccc2n1`: the Ki on Translocator protein was found to be 2.51 nM. Further, the inhibition in the test filed under Rattus norvegicus worked out at 0%.

In the case of `O=C(c1nc(-c2ccccc2)c2cc(Cl)ccc2n1)N1CCCC1`, the inhibition in test [1] amounted to 43%; in the test filed under Rattus norvegicus, 0%.

Regarding `CCC(C)N(C)C(=O)c1nc(-c2ccccc2)c2cc(Cl)ccc2n1` (stereo unspecified), the inhibition was determined as 22% in test [1] and 0% in the test filed under Rattus norvegicus.

With `CN1C(=O)CN=C(c2ccccc2F)c2cc([N+](=O)[O-])ccc21`, in the test filed under Rattus norvegicus, the inhibition stood at 0%.

For `O=C(c1nc(-c2ccccc2Cl)c2ccccc2n1)N1CCCC1`, the inhibition came out at 70% in test [1] and 0% in the test filed under Rattus norvegicus.

On to `CCCCCCN(CCCCCC)C(=O)c1nc(-c2ccccc2)c2ccccc2n1`, for which affinity on Translocator protein was put at a Ki of 0.69 nM. Also, the result in the test with C6 was inactive. Further, in the test on U-87MG ATCC, the result was Active. This compound also displayed an inhibition in the test filed under Rattus norvegicus of 0%.

Turning to `CCC(C)N(C)C(=O)c1nc(-c2ccccc2)c2ccccc2n1` (stereo unspecified), on Translocator protein, the Ki came out at 3 nM. Besides, in the test filed under Rattus norvegicus, the inhibition was 0%.

With `O=C(c1nc(-c2ccccc2)c2ccccc2n1)N1CCCC1`, the inhibition in test [1] came out at 36%; in the test filed under Rattus norvegicus, 0%.

In turn, `CC(C)N(C)C(=O)c1nc(-c2ccc(Cl)cc2)c2ccccc2n1` showed a Ki at Translocator protein of 50.4 nM. For the same compound, the inhibition in the test listed under Rattus norvegicus came out at 0%.

Regarding `CCCCCCN(CCCCCC)C(=O)c1nc(-c2ccc(Cl)cc2)c2cc(Cl)ccc2n1`, on Translocator protein, the Ki amounted to 4.31 nM. In the test listed under Rattus norvegicus, this compound displayed an inhibition of 0%.

For the compound `O=C(c1nc(-c2ccccc2)c2cc(Cl)ccc2n1)N1CCCCC1`, the inhibition is 46% in test [1] and 0% in the test listed under Rattus norvegicus.

At Translocator protein, `O=C(c1nc(-c2ccccc2Cl)c2cc(Cl)ccc2n1)N1CCCCCC1` came in with an inhibition constant Ki of 415 nM. Besides, the inhibition in the test filed under Rattus norvegicus was 0%.

Turning to `CCC(C)NC(=O)c1nc(-c2ccc(Cl)cc2)c2ccccc2n1` (stereo unspecified), the inhibition is 37% in test [1] and 0% in the test listed under Rattus norvegicus.

Take `O=C(c1nc(-c2ccccc2)c2ccccc2n1)N1CCCCC1`: the figures for the inhibition (in test [1]; in the test listed under Rattus norvegicus) were 61% and 0%, respectively.

For the compound `O=C(c1nc(-c2ccccc2Cl)c2cc(Cl)ccc2n1)N1CCCC1`, the inhibition in test [1] amounted to 73%; in the test filed under Rattus norvegicus, 0%.

As for `O=C(c1nc(-c2ccccc2Cl)c2ccccc2n1)N1CCCCCC1`, the affinity on Translocator protein, expressed as Ki, was 8.77 nM. In addition, the inhibition in the test listed under Rattus norvegicus was 0%.

As to `CCC(C)N(C)C(=O)c1nc(-c2ccccc2Cl)c2cc(Cl)ccc2n1` (stereo unspecified), the inhibition in test [1] worked out at 43%; in the test listed under Rattus norvegicus it was 0%.

Compound `CCCCCCN(CCCCCC)C(=O)c1nc(-c2ccccc2)c2cc(Cl)ccc2n1` showed a Ki at Translocator protein of 38.5 nM. Further, the inhibition in the test listed under Rattus norvegicus amounted to 0%.

Consider `CC[C@H](C)N(C)C(=O)c1nc(-c2ccccc2Cl)c2ccccc2n1`, for which the Ki at Translocator protein worked out at 2.2 nM. In the test listed under Rattus norvegicus, the inhibition came to 0%.

`CCCCCN(CCCCC)C(=O)c1nc(-c2ccccc2)c2ccccc2n1` came in with an inhibition in the test listed under Rattus norvegicus of 0%.

With `O=C(c1nc(-c2ccccc2)c2ccccc2n1)N1CCCCCC1`, the inhibition is 79% in test [1] and 0% in the test filed under Rattus norvegicus.

In the case of `CC[C@@H](C)N(C)C(=O)c1nc(-c2ccccc2)c2ccccc2n1`, the Ki on Translocator protein amounted to 6.41 nM. In the test listed under Rattus norvegicus, the inhibition was 0%.

Turning to `CCCCCCN(CCCCCC)C(=O)c1nc(-c2ccc(Cl)cc2)c2ccccc2n1`, the affinity on Translocator protein corresponds to a Ki of 3.42 nM. The result in the test with C6 was Active. The compound further gave an inhibition in the test filed under Rattus norvegicus of 0%.

`CC(C)CN(C)C(=O)c1nc(-c2ccc(Cl)cc2)c2ccccc2n1`: the Ki on Translocator protein is 20.7 nM. Besides, the inhibition in the test listed under Rattus norvegicus is 0%.

As to `O=C(c1nc(-c2ccccc2)c2cc(Cl)ccc2n1)N1CCCCCC1`, the values for the inhibition (in test [1]; in the test filed under Rattus norvegicus) were 38% and 0%, respectively.

At Translocator protein, `CC[C@@H](C)N(C)C(=O)c1nc(-c2ccccc2Cl)c2ccccc2n1` yielded a Ki of 1.55 nM. In the test listed under Rattus norvegicus, this compound showed an inhibition of 0%.

Take `O=C(c1nc(-c2ccc(Cl)cc2)c2ccccc2n1)N1CCCCC1`: on Translocator protein, the inhibition constant (Ki) is 493 nM. The inhibition in the test filed under Rattus norvegicus is 0%.

`CC(C)CN(C)C(=O)c1nc(-c2ccccc2)c2ccccc2n1` displayed a Ki at Translocator protein of 66.5 nM. The inhibition in the test listed under Rattus norvegicus worked out at 0%.

At Translocator protein, `CCCN(CCC)C(=O)c1nc(-c2ccccc2)c2ccccc2n1` came in with a Ki of 36.8 nM. In addition, the inhibition in the test filed under Rattus norvegicus is 0%.

As to `CCC(C)N(C)C(=O)c1nc(-c2ccc(Cl)cc2)c2ccccc2n1` (stereo unspecified), the Ki at Translocator protein is 2.67 nM. Moreover, the result in the test with C6 was Active. In the test listed under Rattus norvegicus, this compound showed an inhibition of 0%.

For the compound `CC(C)N(C)C(=O)c1nc(-c2ccc(Cl)cc2)c2cc(Cl)ccc2n1`, the figures for the inhibition (in test [1]; in the test filed under Rattus norvegicus) were 39% and 0%, respectively.

`CCC(C)N(C)C(=O)c1nc(-c2ccc(Cl)cc2)c2cc(Cl)ccc2n1` (stereo unspecified) showed an inhibition constant Ki at Translocator protein of 179 nM. The compound further returned an inhibition in the test listed under Rattus norvegicus of 0%.

As for `CCC(C)NC(=O)c1nc(-c2ccccc2Cl)c2cc(Cl)ccc2n1` (stereo unspecified), the inhibition (in test [1]; in the test listed under Rattus norvegicus) was 0% each time.

For the compound `O=C(c1nc(-c2ccccc2Cl)c2cc(Cl)ccc2n1)N1CCCCC1`, at Translocator protein, the affinity, expressed as Ki, was 273 nM. The compound further displayed an inhibition in the test filed under Rattus norvegicus of 0%.

Take `CC(C)N(C)C(=O)c1nc(-c2ccccc2)c2cc(Cl)ccc2n1`: the inhibition (in test [1]; in the test filed under Rattus norvegicus) was 0% throughout.
